We go through 25 molecules from patent US20230075856A1, “CYCLIC SULFAMIDE COMPOUNDS FOR TREATMENT OF HBV” (Assembly Biosciences, Inc., priority 2018, published 2023).

The subject of one test is HBV viral load production from HepAD38 cells. Briefly: Viral production from HepAD38 cells: viral load in supernatant by qPCR of the HBV core sequence. The settings on record: 5 days incubation, qPCR of supernatant HBV DNA vs DMSO control, read-out: viral load lowering EC50 (Activity). It is filed as cell-based. The procedure:
Assay Measuring Activity of Test Compounds on Viral Production from HepAD38 Cells
HepAD38 cells grown in a T-150 flask (Corning, cat #: 430825) with Growth Medium (DMEM/F12 […] (Hyclone, cat #: SH30023.02), 1× Pen/Strep (Invitrogen, cat #: 15140-122), 10% FBS (Tissue Culture Biologics, cat #: 101), […] G418 (Alfa Aesar, cat #: J62671), 1 μg/mL Tetracycline (Teknova, cat #: T3320)) were detached with 0.25% trypsin-EDTA (Invitrogen, cat #: 25200-056). Tetracycline-free treatment medium (15 mL DMEM/F12 (1:1) 1× Pen/step, with 2% FBS, Tet-system approved (Clontech, cat #: 631106) were then added to mix, transferred into a 50 ml conical tube (Falcon, cat #: 21008-918,) and spun at 1300 rpm for 5 min. Pelleted cells were then re-suspended/washed with 50 mL of 1×DPBS (Invitrogen, cat #: 14190-136) 2 times and 50 mL treatment medium twice. HepAD38 cells were then re-suspended with 10 mL of treatment medium, syringed and counted. Wells of 96-well clear bottom TC plate (Corning, cat #: 3904,) were seeded at 50,000 cells/well in 180 μL of treatment medium, and 20 μL of either 10% DMSO (Sigma, cat #: D4540) as controls or a 10× solution of test compounds in 10% DMSO in treatment media was added for a final compound concentration starting at 10 μM, and plates were incubated in 5% CO2 incubator at 37° C. for 5 days.
Subsequently viral load production was assayed by quantitative PCR (qPCR) of the HBV core sequence. PCR reaction mixture containing forward primers HBV-f 5′-CTGTGCCTTGGGTGGCTIT-3′ (IDT DNA), Reverse primers HBV-r 5′-[…]-3′ (IDT DNA), Fluorescent TaqMan™ Probes HBV-probe 5′-FAM/AGCTCCAAA/ZEN/[…]/3IABkFQ-3′ (IDT DNA), 10 μL/well of PerfeCTa® qPCR ToughMix® (Quanta Biosciences, Cat #: 95114-05K), and 6 μL/well of DEPC water (Alfa Aesar, cat #: J62087) was prepared. Four μL of supernatant was added to 16 μL of the reaction mixture in a qPCR plate (Applied Biosytems, Cat #: 4309849), sealed with a film (Applied Biosystems, Cat #: 4311971), centrifuged for a few seconds, and subsequently run on an Applied Biosystems VIIA7. The PCR mixture was incubated at 45° C. for 5 min, then 95° C. for 10 min, followed by 40 cycles of 10 seconds at 95° C. and 20 seconds at 60° C. Viral load was quantified against known HBV DNA standards by using ViiA™ 7 Software. Viral load in the supernatant from wells with treated cells were compared against viral load in supernatant from DMSO control wells (≥3 per plate). Cell viability assay was performed with CellTiter-Glo Luminescent Cell Viability Assay (Promega, cat #: G7573) with modification. Mixed appropriate amount of CellTiter-Glo (CTG) 1×DPBS in a 1:1 ratio, added 100 uL of the mixture to each well followed completely removal of all supernatant in each well without touching cell surface. Incubated the plate at room temperature for 10 min on an orbital shaker, and then read the plate with a plate reader (TECAN M1000 or Envision). EC50 or CC50 values were calculated through curve-fitting of the four-parameter nonlinear-logistic-regression model (GraphPad Prism or Dotmatics). CC50 values were all >10 μM.
On to `COc1cccc(CNC(=O)C2CC(C(=O)Nc3ccc(F)c(Cl)c3)N(C)S(=O)(=O)N2)c1` (single isomer, unassigned) [Compound 721-ISOMER-B, N3-(3-chloro-4-fluoro-phenyl)-N5-[(3-methoxyphenyl)methyl]-2-methyl-1,1-dioxo-1,2,6-thiadiazinane-3,5-dicarboxamide], for which the EC50 is 100 to 10000 nM.
As to `CN1C(C(=O)Nc2ccc(F)c(Cl)c2)CC(C(=O)NC2CCN(c3ccnc(Cl)c3)CC2)NS1(=O)=O` (single isomer, unassigned) [1012-ISOMER-B, N3-(3-Chloro-4-fluoro-phenyl)-N5-[1-(2-chloro-4-pyridyl)-4-piperidyl]-2-methyl-1,1-dioxo-1,2,6-thiadiazinane-3,5-dicarboxamide], the EC50 lay in the range of 50 to 100 nM.
The same measure, in the same setting: the figure for `CN1C(C(=O)Nc2ccc(F)c(Cl)c2)CC(C(=O)NCc2cc(-c3ccccc3Cl)no2)NS1(=O)=O` (single isomer, unassigned; isomer-b) [1025-ISOMER-B, N3-(3-chloro-4-fluoro-phenyl)-N5-[[3-(2-chlorophenyl)isoxazol-5-yl]methyl]-2-methyl-1,1-dioxo-1,2,6-thiadicarboxamidediazinane-3,5-] is 100 to 10000 nM; for `Cc1nc(-c2ccc(F)cc2)sc1CNC(=O)C1CC(C(=O)Nc2ccc(F)c(Cl)c2)N(C)S(=O)(=O)N1` (single isomer, unassigned) [1056-ISOMER-B, N3-(3-chloro-4-fluoro-phenyl)-N5-[[2-(4-fluorophenyl)-4-methyl-thiazol-5-yl]methyl]-2-methyl-1,1-dioxo-1,2,6-thiadiazinane-3,5-dicarboxamide] it is less than 50 nM.
Consider `CN1C(C(=O)Nc2ccc(F)c(Cl)c2)CC(C(=O)NCc2cc(-c3ccc(F)cc3)nn2C)NS1(=O)=O` (single isomer, unassigned) [1143-ISOMER-B, N3-(3-chloro-4-fluoro-phenyl)-N5-[[5-(4-fluorophenyl)-2-methyl-pyrazol-3-yl]methyl]-2-methyl-1,1-dioxo-1,2,6-thiadiazinane-3,5-dicarboxamide], for which the EC50 was less than 50 nM.
On the same count and under the same terms, next, `CN1C(C(=O)Nc2ccc(F)c(Cl)c2)CC(C(=O)NCc2csc(-c3ccc(OCCN4CCCCC4)cc3)n2)NS1(=O)=O` (single isomer, unassigned) [Compound 957-ISOMER-B, N3-(3-chloro-4-fluoro-phenyl)-2-methyl-1,1-dioxo-N5-[[2-[4-[2-(1-piperidyl)ethoxy]phenyl]thiazol-4-yl]methyl]-1,2,6-thiadiazinane-3,5-dicarboxamide]: 100 to 10000 nM.
On to “N3-(3-chloro-4-fluoro-phenyl)-N5-[(S)-(2-chlorothiazol-5-yl)-phenyl-methyl]-2-methyl-1,1-dioxo-1,2,6-thiadiazinane-3,5- [1066-ISOMER-B]”, for which the EC50 was less than 50 nM.
On to `COc1ccccc1-c1ncc(CNC(=O)C2CC(C(=O)Nc3ccc(F)c(Cl)c3)N(C)S(=O)(=O)N2)s1` (single isomer, unassigned) [Compound 987-ISOMER-B, N3-(3-chloro-4-fluoro-phenyl)-N5-[[2-(2-methoxyphenyl)thiazol-5-yl]methyl]-2-methyl-1,1-dioxo-1,2,6-thiadiazinane-3,5-dicarboxamide], for which the concentration for a half-maximal effect (EC50) lay within 100 to 10000 nM.

The test is the same for the next values; noted with them: Hepatitis B virus, HePAD38, 120 h, 5 days incubation, qPCR of supernatant HBV DNA vs DMSO control, read-out: viral load lowering EC50 (Activity).
`CN1C(C(=O)Nc2ccc(F)c(Cl)c2)CC(C(=O)NC(c2ccccc2)c2ccccc2)NS1(=O)=O` (stereo not shown) [Compound 1014]: the EC50 was less than 50 nM.
Regarding `CN1C(C(=O)Nc2ccc(F)c(Cl)c2)CC(C(=O)NCc2cnc(-c3ccc(SCCCO)cc3)s2)NS1(=O)=O` (stereo not shown) [Compound 923], the EC50 fell in the range of 50 to 100 nM.
Regarding `CN1C(C(=O)Nc2ccc(F)c(Cl)c2)CC(C(=O)NCc2ccccc2)NS1(=O)=O` (single isomer, unassigned) [Compound 718-ISOMER-A, N5-benzyl-N3-(3-chloro-4-fluoro-phenyl)-2-methyl-1,1-dioxo-1,2,6-thiadiazinane-3,5-dicarboxamide], the EC50 was less than 50 nM.
Still for that read-out and setting: next, `CN1C(C(=O)Nc2ccc(F)c(Cl)c2)CC(C(=O)NCc2cnc(C(F)(F)F)s2)NS1(=O)=O` (single isomer, unassigned) [Compound 498-ISOMER-A, N3-(3-chloro-4-fluoro-phenyl)-2-methyl-1,1-dioxo-N5-[[2-(trifluoromethyl)thiazol-5-yl]methyl]-1,2,6-thiadiazinane-3,5-dicarboxamide]: 100 to 10000 nM; `CCn1nccc1CNC(=O)C1CC(C(=O)Nc2ccc(F)c(Cl)c2)N(C)S(=O)(=O)N1` (stereo not shown) [Compound 744]: 50 to 100 nM.
Turning to `CN(C)CCCCc1cnn(-c2ncc(CNC(=O)C3CC(C(=O)Nc4ccc(F)c(Cl)c4)N(C)S(=O)(=O)N3)s2)c1` (stereo not shown) [Compound 1197], the EC50 was in the range of 100 to 10000 nM.
For `C[C@@H](NC(=O)C1CC(C(=O)Nc2ccc(F)c(Cl)c2)N(C)S(=O)(=O)N1)c1ccc(C(F)(F)F)cc1` (single isomer, unassigned) [493-R-ISOMER-B], the 50% effective concentration (EC50) lay in the range of 100 to 10000 nM.
On the same count and under the same terms, the figure for `CN1C(C(=O)Nc2ccc(F)c(Cl)c2)CC(C(=O)NCc2nn(-c3ccccc3)c3ccccc23)NS1(=O)=O` (stereo not shown) [Compound 1072] is less than 50 nM; for `CN1C(C(=O)Nc2ccc(F)c(Cl)c2)CC(C(=O)NC2CCN(c3ccnc(Cl)n3)CC2)NS1(=O)=O` (stereo not shown) [Compound 1054] it is less than 50 nM; for `Cc1nc(-c2ccccc2Cl)sc1[C@@H](NC(=O)C1CC(C(=O)Nc2ccc(F)c(Cl)c2)N(C)S(=O)(=O)N1)c1ccccc1` (single isomer, unassigned) [1100-ISOMER-D] it is 100 to 10000 nM.
As for `CN1C(C(=O)Nc2ccc(F)c(Cl)c2)CC(C(=O)NCc2cnc(-c3cscn3)s2)NS1(=O)=O` (single isomer, unassigned) [Compound 929-ISOMER-B, N3-(3-chloro-4-fluoro-phenyl)-2-methyl-1,1-dioxo-N5-[(2-thiazol-4-ylthiazol-5-yl)methyl]-1,2,6-thiadiazinane-3,5-dicarboxamide], the concentration for a half-maximal effect (EC50) was less than 50 nM.
Consider `CN1C(C(=O)Nc2ccc(F)c(Cl)c2)CC(C(=O)N[C@@H](c2ccccc2)c2cnc(-c3ccccc3)s2)NS1(=O)=O` (single isomer, unassigned) [1067-ISOMER-D], for which the EC50 was in the range of 100 to 10000 nM.
As for `C[C@@H](NC(=O)C1CC(C(=O)Nc2ccc(F)c(Cl)c2)N(C)S(=O)(=O)N1)c1ccccc1` (single isomer, unassigned) [Compound 719-ISOMER-A], the EC50 is less than 50 nM.
As for `CN1C(C(=O)Nc2ccc(F)c(Cl)c2)CC(C(=O)NCc2cnc(-c3ccc(O)cc3)s2)NS1(=O)=O` (stereo not shown) [Compound 924], the 50% effective concentration (EC50) is less than 50 nM.
`COc1ccc(-c2cnc(CNC(=O)C3CC(C(=O)Nc4ccc(F)c(Cl)c4)N(C)S(=O)(=O)N3)s2)cc1` (single isomer, unassigned) [Compound 932-ISOMER-A, N3-(3-chloro-4-fluoro-phenyl)-N5-[[5-(4-methoxyphenyl)thiazol-2-yl]methyl]-2-methyl-1,1-dioxo-1,2,6-thiadiazinane-3,5-dicarboxamide]: the EC50 lay within 100 to 10000 nM.
On to `CN1C(C(=O)Nc2ccc(F)c(Cl)c2)CC(C(=O)NCc2cnc(-c3ccc(OCCCN4CCSCC4)cc3)s2)NS1(=O)=O` (single isomer, unassigned) [Compound 925-ISOMER-A, N3-(3-chloro-4-fluoro-phenyl)-2-methyl-1,1-dioxo-N5-[[2-[4-(3-thiomorpholinopropoxy)phenyl]thiazol-5-yl]methyl]-1,2,6-thiadiazinane-3,5-dicarboxamide], for which the concentration for a half-maximal effect (EC50) is less than 50 nM.
`CN1C(C(=O)Nc2ccc(F)c(Cl)c2)CC(C(=O)NC2CCN(C(=O)OCCCN3CCCCC3)CC2)NS1(=O)=O` (stereo not shown) [Compound 964]: the concentration giving a half-maximal response (EC50) is 100 to 10000 nM.
